Legend:
HCT-15 = experiment: NCI SRB cytotoxicity, HCT-15; format: cell-based, human; conditions: Colon HCT-15, 48 hrs exposure
From the text: (§1) The C8-linked carbazole-PBD hybrids have been tested against sixty human tumour cell lines derived from nine cancer types (leukemia, non-small cell lung cancer, colon cancer, CNS cancer, melanoma, ovarian cancer, renal cancer, prostate cancer and breast cancer) as per NCI protocol, For each compound, dose response curves for individual cell lines have been measured at a minimum of five concentrations at 10 fold dilutions. A protocol of 48 hrs continuous drug exposure has been used, and a sulforhodamine B (SRB) protein assay was used to estimate cell viability or growth. The concentration for 50% cell growth inhibition (GI50), total cell growth inhibition (TGI, 0% growth) and 50% cell death (LC50, […]) compared with the control has been calculated (Table-3).
(§2) Compounds 6c and 14a have been evaluated for in vitro cytotoxicity in sixty cell lines from nine human cancer types of lung (Hop-62, NCI-H226, NCI-H522), leukemia (K-562, SR), colon (HCT-116, HCT-15, HCC-2998), CNS(SF-539), melanoma (SK-MEL-5, UACC-62, M14), ovarian (IGROV1), renal (A498), prostate (PC3) breast (BT-549, MDA-MB-435, HS578T) origin. The results are expressed as percent of cell growth determined relative to that of untreated control cells (Table 1).

SNB-19 = experiment: NCI SRB cytotoxicity, SNB-19; format: cell-based, human; conditions: CNS SNB-19, 48 hrs exposure
From the text: as §1, §2

NCI-H226 = experiment: NCI SRB cytotoxicity, NCI-H226; format: cell-based, human; conditions: Non-small cell lung NCI-H226, 48 hrs exposure
From the text: as §1, §2

LOX IMVI = experiment: NCI SRB cytotoxicity, LOX IMVI; format: cell-based, human; conditions: Melanoma LOX IMVI, 48 hrs exposure
From the text: as §1, §2

CAKI-1 = experiment: NCI SRB cytotoxicity, CAKI-1; format: cell-based, human; conditions: Renal CAKI-1, 48 hrs exposure
From the text: as §1, §2

MCF7 = experiment: NCI SRB cytotoxicity, MCF7; format: cell-based, human; conditions: Breast MCF7, 48 hrs exposure
From the text: as §1, §2

SF-268 = experiment: NCI SRB cytotoxicity, SF-268; format: cell-based, human; conditions: CNS SF-268, 48 hrs exposure
From the text: as §1, §2

OVCAR-5 = experiment: NCI SRB cytotoxicity, OVCAR-5; format: cell-based, human; conditions: Ovarian OVCAR-5, 48 hrs exposure
From the text: as §1, §2

COLO 205 = experiment: NCI SRB cytotoxicity, COLO 205; format: cell-based, human; conditions: Colon COLO 205, 48 hrs exposure
From the text: as §1, §2

IGROV1 = experiment: NCI SRB cytotoxicity, IGROV1; format: cell-based, human; conditions: Ovarian IGROV1, 48 hrs exposure
From the text: as §1, §2

[1] = tested on: Melanoma cancer cell lines; experiment: NCI SRB cytotoxicity, melanoma panel; format: cell-based, human; conditions: average of six to eight cell lines
From the text: as §1, §2

OVCAR-4 = experiment: NCI SRB cytotoxicity, OVCAR-4; format: cell-based, human; conditions: Ovarian OVCAR-4, 48 hrs exposure
From the text: as §1, §2

PC-3 = experiment: NCI SRB cytotoxicity, PC-3; format: cell-based, human; conditions: Prostate PC-3, 48 hrs exposure
From the text: as §1, §2

[2] = tested on: duplex-form calf thymus DNA (CT-DNA); experiment: Thermal denaturation studies (DNA binding); conditions: [PBD]:[DNA] molar ratio 1:5, CT-DNA 100 μM, ligand 20 μM; for ΔTm after incubation at 37 °C for 0 h: pH 7.00, 0 h; for ΔTm after incubation at 37 °C for 18 h: pH 7.00, 18 h
Protocol: Compounds have been subjected to thermal denaturation studies with duplex-form calf thymus DNA (CT-DNA) using a modification of a reported procedure. Working solutions in aqueous buffer ([…] NaH2PO4/Na2HPO4, 1 mM Na2EDTA, pH 7.00±0.01) containing CT-DNA (100 μM in phosphate) and the PBD (20 μM) have been prepared by addition of concentrated PBD solutions in DMSO to obtain a fixed [PBD]/[DNA] molar ratio of 1:5. The DNA-PBD solutions have been incubated at 37° C. for 0 and 18 hrs prior to analysis. Samples have been monitored at 260 nm using a Beckman DU-800 spectrophotometer fitted with high performance temperature controller, and heated at 1° C. min^−1 in the 40-110° C. range. DNA helix→coil transition temperatures (Tm) have been obtained from the maxima in the d(A260)/dT derivative plots. Drug-induced alterations in DNA melting behavior are given by: […]Tm=Tm(DNA+PBD)-Tm(DNA alone), where the Tm value for the PBD-free CT-DNA is 68.5 […]0.01.
The DNA-binding for these C8-linked carbazole-PBD hybrids has been examined by thermal denaturation studies using calf thymus (CT) DNA. […] Data for 6a, 6b, 6c, 14a, 14b, and 14d and DC-81 are included in Table 5 for comparison.

SF-539 = experiment: NCI SRB cytotoxicity, SF-539; format: cell-based, human; conditions: CNS SF-539, 48 hrs exposure
From the text: as §1, §2

MDA-MB- = experiment: NCI SRB cytotoxicity, MDA-MB-; format: cell-based, human; conditions: Breast MDA-MB-, 48 hrs exposure
From the text: as §1, §2

M14 = experiment: NCI SRB cytotoxicity, M14; format: cell-based, human; conditions: Melanoma M14, 48 hrs exposure
From the text: as §1, §2

K-562 = experiment: NCI SRB cytotoxicity, K-562; format: cell-based, human; conditions: Leukemia K-562, 48 hrs exposure
From the text: as §1, §2

ACHN = experiment: NCI SRB cytotoxicity, ACHN; format: cell-based, human; conditions: Renal ACHN, 48 hrs exposure
From the text: as §1, §2

SNB-75 = experiment: NCI SRB cytotoxicity, SNB-75; format: cell-based, human; conditions: CNS SNB-75, 48 hrs exposure
From the text: as §1, §2

UACC-62 = experiment: NCI SRB cytotoxicity, UACC-62; format: cell-based, human; conditions: Melanoma UACC-62, 48 hrs exposure
From the text: as §1, §2

DU-145 = experiment: NCI SRB cytotoxicity, DU-145; format: cell-based, human; conditions: Prostate DU-145, 48 hrs exposure
From the text: as §1, §2

U251 = experiment: NCI SRB cytotoxicity, U251; format: cell-based, human; conditions: CNS U251, 48 hrs exposure
From the text: as §1, §2

MDA-MB-435 = experiment: NCI SRB cytotoxicity, MDA-MB-435; format: cell-based, human; conditions: Breast MDA-MB-435, 48 hrs exposure
From the text: as §1, §2

HT 29 = experiment: NCI SRB cytotoxicity, HT 29; format: cell-based, human; conditions: Colon HT 29, 48 hrs exposure
From the text: as §1, §2

NCI-H522 = experiment: NCI SRB cytotoxicity, NCI-H522; format: cell-based, human; conditions: Non-small cell lung NCI-H522, 48 hrs exposure
From the text: as §1, §2

SW-620 = experiment: NCI SRB cytotoxicity, SW-620; format: cell-based, human; conditions: Colon SW-620, 48 hrs exposure
From the text: as §1, §2

SMILES: COc1cc2c(cc1OCCCCCn1c3ccccc3c3ccccc31)N=C[C@@H]1CCCN1C2=O [Compound 6c, 7-Methoxy-8-[5-(9H-9-carbazoly)pentyloxy]-(11aS)-1,2,3,11a-tetrahydro-5H-Pyrrolo[2,1-c][1,4]benzodiazepin-5-one]
- GI50 (HCT-15): 1670 nM
- GI50 (SNB-19): 2050 nM
- GI50 (NCI-H226): 2490 nM
- GI50 (LOX IMVI): 2080 nM
- GI50 (CAKI-1): 1930 nM
- GI50 (MCF7): 2330 nM
- GI50 (SF-268): 1910 nM
- GI50 (OVCAR-5): 2420 nM
- GI50 (COLO 205): 2110 nM
- GI50 (IGROV1): 2080 nM
- Log10 GI50 [1]: −5.71 mol/L
- Log10 LC50 (concentration causing 50% lethality) [1]: −4.74 mol/L
- GI50 (OVCAR-4): 3090 nM
- GI50 (PC-3): 2360 nM
- ΔTm after incubation at 37 °C for 0 h [2]: 4.1 °C
- ΔTm after incubation at 37 °C for 18 h [2]: 4.9 °C
- GI50 (SF-539): 1850 nM
- GI50 (MDA-MB-): 2140 nM
- GI50 (M14): 2100 nM
- GI50 (K-562): 2600 nM
- GI50 (ACHN): 1740 nM
- GI50 (SNB-75): 1050 nM
- GI50 (UACC-62): 1860 nM
- GI50 (DU-145): 2230 nM
- GI50 (U251): 1590 nM
- GI50 (MDA-MB-435): 1730 nM

SMILES: COc1cc2c(cc1OCCCN1CCN(CCCn3c4ccccc4c4ccccc43)CC1)N=C[C@@H]1CCCN1C2=O [Compound 14a]
- GI50 (HCT-15): 280 nM
- GI50 (SNB-19): 210 nM
- GI50 (CAKI-1): 120 nM
- GI50 (COLO 205): 70 nM
- GI50 (IGROV1): < 10 nM
- Log10 GI50 [1]: −6.91 mol/L
- Log10 LC50 (concentration causing 50% lethality) [1]: −6.06 mol/L
- GI50 (OVCAR-4): 100 nM
- ΔTm after incubation at 37 °C for 0 h [2]: 7.5 °C
- ΔTm after incubation at 37 °C for 18 h [2]: 8.2 °C
- GI50 (SF-539): 120 nM
- GI50 (HT 29): 50 nM
- GI50 (MDA-MB-): 950 nM
- GI50 (ACHN): 250 nM
- GI50 (SNB-75): 150 nM
- GI50 (UACC-62): 150 nM
- GI50 (NCI-H522): < 10 nM
- GI50 (MDA-MB-435): < 10 nM
- GI50 (SW-620): 40 nM

Reference: US8927538B2, “Carbazole linked pyrrolo[2,1-c][1,4]benzodiazefine hybrids as potential anticancer agents and process for the preparation thereof” (Council of Scientific & Industrial Research, priority 2010, dated 2015)
